The conditions of data set [1]: 298.15 K; for surface tension liquid-gas: Maximal bubble pressure; for mass density: 101.33 kPa, Liquid, Vibrating tube method.
Data set [2] is described as follows: refractive index (Na D-line) (dimensionless). Particulars: 298.15 K; 101.33 kPa; Liquid; Standard Abbe refractometry.
For data set [3] the following is noted: 101 kPa, Liquid mixture 1, Drop volume.

Numbers after ± are expanded uncertainties.

What is called surface tension liquid-gas is the force per length acting along the surface. As a reminder, the mass density is mass per unit of volume. Usually refractive index stands for the speed of light in vacuum divided by its phase velocity in the sample. Consider `CCOC(C)(C)C` [2-ethoxy-2-methylpropane], for which, in data set [1], the surface tension liquid-gas stood at 19.73 ± 0.17 mN/m and the mass density is 736.65 ± 0.14 kg/m3. The refractive index in data set [2] was determined as 1.37468 ± 0.00031.

Take `CCOC(C)(C)C` [2-ethoxy-2-methylpropane] + O: the interfacial tension worked out at 14 ± 0.11 mN/m in data set [3] (278.15 K); 15.5 ± 0.12 mN/m in data set [3] (288.15 K); 16.6 ± 0.12 mN/m in data set [3] (298.15 K); 17.8 ± 0.13 mN/m in data set [3] (308.15 K); 18.7 ± 0.13 mN/m in data set [3] (318.15 K); 19.3 ± 0.14 mN/m in data set [3] (328.15 K).

In the case of `CCC(C)(C)OC` [2-methoxy-2-methylbutane], in data set [1], the surface tension liquid-gas was 20.3 ± 0.17 mN/m and the mass density is 765.91 ± 0.14 kg/m3. In addition, the refractive index in data set [2] is recorded as 1.38736 ± 0.00032.

Turning to `CCC(C)(C)OC` [2-methoxy-2-methylbutane] + O, the interfacial tension in data set [3] (278.15 K) is on record as 12.2 ± 0.1 mN/m; in data set [3] (288.15 K), 13.2 ± 0.11 mN/m; in data set [3] (298.15 K) it was 14.5 ± 0.11 mN/m; in data set [3] (308.15 K), 15.5 ± 0.12 mN/m; in data set [3] (318.15 K) it was 16.3 ± 0.12 mN/m; in data set [3] (328.15 K) it was 17 ± 0.13 mN/m. In addition, the interfacial tension in data set [3] (338.15 K) came out at 17.5 ± 0.13 mN/m.

Turning to `COC(C)(C)C` [2-methoxy-2-methylpropane], in data set [1], the surface tension liquid-gas is 17.5 ± 0.16 mN/m and the mass density worked out at 735.31 ± 0.14 kg/m3. In addition, the refractive index in data set [2] was 1.36764 ± 0.00031.

In the case of `COC(C)(C)C` [2-methoxy-2-methylpropane] + O, the interfacial tension in data set [3] (278.15 K) turned out to be 7.8 ± 0.08 mN/m; in data set [3] (288.15 K), 8.83 ± 0.09 mN/m; in data set [3] (298.15 K) it was 9.8 ± 0.09 mN/m; in data set [3] (308.15 K) it was 10.8 ± 0.1 mN/m; in data set [3] (318.15 K) it was 11.7 ± 0.1 mN/m.

Consider `CCCCO` [butan-1-ol] + O, for which the interfacial tension came out at 1.49 ± 0.05 mN/m in data set [3] (278.15 K); 1.63 ± 0.05 mN/m in data set [3] (288.15 K); 1.68 ± 0.05 mN/m in data set [3] (298.15 K); 1.69 ± 0.05 mN/m in data set [3] (308.15 K); 1.63 ± 0.05 mN/m in data set [3] (318.15 K); 1.54 ± 0.05 mN/m in data set [3] (328.15 K). Further, the interfacial tension in data set [3] (338.15 K) was found to be 1.39 ± 0.05 mN/m; in data set [3] (348.15 K) it was 1.2 ± 0.05 mN/m; in data set [3] (358.15 K), 1.04 ± 0.05 mN/m.

Regarding `CC(C)OC(C)C` [diisopropyl ether], in data set [1], the surface tension liquid-gas is listed as 16.9 ± 0.16 mN/m and the mass density is recorded as 718.89 ± 0.15 kg/m3. Moreover, the refractive index in data set [2] was 1.3665 ± 0.00031.

For `CC(C)OC(C)C` [diisopropyl ether] + O, the interfacial tension in data set [3] (278.15 K) worked out at 15.2 ± 0.12 mN/m; in data set [3] (288.15 K), 16.3 ± 0.12 mN/m; in data set [3] (298.15 K), 17.7 ± 0.13 mN/m; in data set [3] (308.15 K), 18.7 ± 0.13 mN/m; in data set [3] (318.15 K), 19.7 ± 0.14 mN/m; in data set [3] (328.15 K), 21.1 ± 0.15 mN/m.

As to `CCCCCCCO` [heptan-1-ol], in data set [1], the surface tension liquid-gas is given as 27.4 ± 0.21 mN/m and the mass density amounted to 818.93 ± 0.11 kg/m3. For the same molecule, the refractive index in data set [2] was 1.42384 ± 0.00031.

Turning to `CCCCCCCO` [heptan-1-ol] + O, the interfacial tension in data set [3] (278.15 K) worked out at 6.61 ± 0.08 mN/m; in data set [3] (288.15 K), 7.09 ± 0.08 mN/m; in data set [3] (298.15 K), 7.4 ± 0.08 mN/m; in data set [3] (308.15 K), 7.56 ± 0.08 mN/m; in data set [3] (318.15 K) it was 7.73 ± 0.08 mN/m; in data set [3] (328.15 K), 7.96 ± 0.08 mN/m. The interfacial tension in data set [3] (338.15 K) turned out to be 7.9 ± 0.08 mN/m; in data set [3] (348.15 K) it was 7.82 ± 0.08 mN/m; in data set [3] (358.15 K), 7.74 ± 0.08 mN/m.

Turning to `CCCCCCO` [hexan-1-ol] + O, the interfacial tension in data set [3] (278.15 K) was found to be 5.77 ± 0.07 mN/m; in data set [3] (288.15 K), 6.06 ± 0.07 mN/m; in data set [3] (298.15 K), 6.29 ± 0.08 mN/m; in data set [3] (308.15 K) it was 6.16 ± 0.08 mN/m; in data set [3] (318.15 K) it was 6.18 ± 0.08 mN/m; in data set [3] (328.15 K), 6.29 ± 0.08 mN/m. In addition, the interfacial tension in data set [3] (338.15 K) was determined as 6.14 ± 0.08 mN/m; in data set [3] (348.15 K), 6 ± 0.07 mN/m.

`CCCCCCCCO` [octan-1-ol]: in data set [1], the surface tension liquid-gas came to 28 ± 0.2 mN/m and the mass density is listed as 822.25 ± 0.11 kg/m3. Besides, the refractive index in data set [2] was determined as 1.42884 ± 0.00031.

Turning to `CCCCCCCCO` [octan-1-ol] + O, the interfacial tension in data set [3] (278.15 K) is reported as 6.99 ± 0.08 mN/m; in data set [3] (288.15 K), 7.53 ± 0.08 mN/m; in data set [3] (298.15 K), 7.97 ± 0.08 mN/m; in data set [3] (308.15 K) it was 8.41 ± 0.09 mN/m; in data set [3] (318.15 K), 8.62 ± 0.09 mN/m; in data set [3] (328.15 K) it was 8.67 ± 0.09 mN/m. The interfacial tension in data set [3] (338.15 K) turned out to be 8.81 ± 0.09 mN/m.

As for `CCCCCO` [pentan-1-ol], in data set [1], the surface tension liquid-gas stood at 24.7 ± 0.2 mN/m and the mass density is 810.89 ± 0.12 kg/m3. Besides, the refractive index in data set [2] is given as 1.40941 ± 0.00032.

As for `CCCCCO` [pentan-1-ol] + O, the interfacial tension in data set [3] (278.15 K) was 3.96 ± 0.07 mN/m; in data set [3] (288.15 K), 4.24 ± 0.07 mN/m; in data set [3] (298.15 K), 4.35 ± 0.07 mN/m; in data set [3] (308.15 K), 4.5 ± 0.07 mN/m; in data set [3] (318.15 K), 4.51 ± 0.07 mN/m; in data set [3] (328.15 K), 4.43 ± 0.07 mN/m. Further, the figures for the interfacial tension in data set [3] (338.15 K), in data set [3] (348.15 K) and in data set [3] (358.15 K) were 4.37 ± 0.07 mN/m, 4.21 ± 0.07 mN/m and 3.94 ± 0.07 mN/m, respectively.

Take `C1CCOCC1` [tetrahydropyran]: in data set [1], the surface tension liquid-gas turned out to be 28 ± 0.21 mN/m and the mass density worked out at 879.44 ± 0.09 kg/m3. Moreover, in data set [2], the refractive index was found to be 1.42004 ± 0.00031.

For `C1CCOCC1` [tetrahydropyran] + O, the interfacial tension in data set [3] (278.15 K) is 4.64 ± 0.07 mN/m; in data set [3] (288.15 K), 5.19 ± 0.07 mN/m; in data set [3] (298.15 K), 5.78 ± 0.07 mN/m; in data set [3] (308.15 K) it was 6.35 ± 0.08 mN/m; in data set [3] (318.15 K), 6.75 ± 0.08 mN/m; in data set [3] (328.15 K), 7.28 ± 0.08 mN/m. Also, the interfacial tension in data set [3] (338.15 K) was 7.45 ± 0.08 mN/m.

For `O` [water], in data set [1], the surface tension liquid-gas came to 71.94 ± 0.41 mN/m and the mass density was found to be 996.7 ± 0.04 kg/m3. The refractive index in data set [2] is listed as 1.33374 ± 0.00031.

For the origin of these results see the NIST ThermoML archive (doi:10.1016/j.fluid.2015.03.040).
